Experimental data reported in US7763615B2, “Ecteinascidin analogs for use as antitumour agents” (priority 2001, dated 2010).
Like-named read-outs stand apart in the source and are kept apart here.

Assays:
A498 = test: cells; type: cell-based; conditions: Homo sapiens
Description: (§1) The finality of these assays is to interrupt the growth of a “in vitro” tumor cell culture by means of a continued exhibition of the cells to the sample to be testing.
(§2) A colorimetric type of assay, using sulphorhodamine B (SRB) reaction has been adapted for a quantitative measurement of cell growth and viability [following the technique described by Philip Skehan, et al. (1990), New colorimetric cytotoxicity assay for anticancer drug screening, J. Natl. Cancer Inst., 82:1107-1112]
(§3) This form of the assay employs 96 well cell culture microplates of 9 mm diameter (Faircloth, 1988; Mosmann, 1983). Most of the cell lines are obtained from American Type Culture Collection (ATCC) derived from different human cancer types.
(§4) Cells are maintained in RPMI 1640 10% FBS, supplemented with 0.1 g/l penicillin and 0.1 g/l streptomycin sulphate and then incubated at 37° C., 5% CO2 and 98% humidity. For the experiments, cells were harvested from subconfluent cultures using trypsin and resuspended in fresh medium before plating.
(§5) Cells are seeded in 96 well microtiter plates, at 5×10^3 cells per well in aliquots of 195 μl medium, and they are allowed to attach to the plate surface by growing in drug free medium for 18 hours. Afterward, samples are added in aliquots of 5 μl in a ranging from 10 to 10^−8 μg/ml, dissolved in DMSO/EtOH/PBS (0.5:0.5:99). After 48 hours exposure, the antitumor effect are measured by the SRB methodology: cells are fixed by adding 50 μl of cold 50% (wt/vol) trichloroacetic acid (TCA) and incubating for 60 minutes at 4° C. Plates are washed with deionized water and dried. One hundred μl of SRB solution (0.4% wt/vol in 1% acetic acid) is added to each microtiter well and incubated for 10 minutes at room temperature. Unbound SRB is removed by washing with 1% acetic acid. Plates are air dried and bound stain is solubilized with Tris buffer. Optical densities are read on a automated spectrophotometric plate reader at a single wavelength of 490 nm.
(§6) The values for mean+/− SD of data from triplicate wells are calculated. Some parameters for cellular responses can be calculated: GI=growth inhibition, TGI=total growth inhibition (cytostatic effect) and LC=cell killing (cytotoxic effect).

A549 = test: cells; type: cell-based; conditions: for GI50: read-out: GI50
Description: as §1, §2, §3, §4, §5, §6

DU145 = test: cells; type: cell-based; conditions: for CC50: read-out: LC50
Description: as §1, §2, §3, §4, §5, §6

HT29 = test: cells; type: cell-based
Description: as §1, §2, §3, §4, §5, §6

MB231 = test: cells; type: cell-based; conditions: Homo sapiens
Description: as §1, §2, §3, §4, §5, §6

MCF = test: cells; type: cell-based; conditions: Homo sapiens
Description: as §1, §2, §3, §4, §5, §6

MEL-28 = test: cells; type: cell-based
Description: as §1, §2, §3, §4, §5, §6

SW-620 = test: cells; type: cell-based; conditions: Homo sapiens
Description: as §1, §2, §3, §4, §5, §6

IGROV-ET = test: cells; type: cell-based; conditions: IGROV-ET, 48 hours exposure, SRB; for CC50: read-out: LC50
Description: as §1, §2, §3, §4, §5, §6

IGROV = test: cells; type: cell-based; conditions: for GI50 / TGI: 48 hours exposure, SRB; for CC50: read-out: LC50, 48 hours exposure, SRB
Description: as §1, §2, §3, §4, §5, §6

K562 = test: cells; type: cell-based
Description: as §1, §2, §3, §4, §5, §6

LNCAP = test: cells; type: cell-based; conditions: LNCAP, 48 hours exposure, SRB; for CC50: read-out: LC50
Description: as §1, §2, §3, §4, §5, §6

LOVO-DOX = test: cells; type: cell-based; conditions: LOVO-DOX, 48 hours exposure, SRB; for CC50: read-out: LC50
Description: as §1, §2, §3, §4, §5, §6

LOVO = test: cells; type: cell-based; conditions: LOVO, 48 hours exposure, SRB; for CC50: read-out: LC50
Description: as §1, §2, §3, §4, §5, §6

PANC-1 = test: cells; type: cell-based; conditions: PANC-1, 48 hours exposure, SRB; for CC50: read-out: LC50
Description: as §1, §2, §3, §4, §5, §6

SK-BR3 = test: cells; type: cell-based; conditions: SK-BR3, 48 hours exposure, SRB; for CC50: read-out: LC50
Description: as §1, §2, §3, §4, §5, §6

H-MEC-1 = test: Inhibition of cells growth by colorimetric assay (SRB), H-MEC-1; type: cell-based; conditions: H-MEC-1, 48 hours exposure, SRB; for CC50: read-out: LC50
Description: as §1, §2, §3, §4, §5, §6

SK-OV3 = test: Inhibition of cells growth by colorimetric assay (SRB), SK-OV3; type: cell-based; conditions: SK-OV3, 48 hours exposure, SRB; for CC50: read-out: LC50
Description: as §1, §2, §3, §4, §5, §6

[1] = tested on: AML-12, normal mouse liver cells; conditions: 24 h
Description: (§7) In order to assess the cytotoxicity of the drugs to normal cells, we used 96 well plates plated at a density of 5000 cells per well (except for the FDC-P1 which were plated at 12,000 cells per well) with normal cell lines (ATCC, Table 1) maintained as per the directions of the ATCC: AML-12, normal mouse liver cells; NRK-52E, normal rat kidney cells; L8, normal rat skeletal muscle cells; FDC-P1, normal mouse myelogeous stem cells; and H9c2 (2-1), normal rat cardiac muscle cells. The cells in each plate were permitted to settle overnight before adding the test drug.
(§8) To each well (100 μl medium) 10 μl of drug in media was added at varying concentrations (1×10-10-0.01 mg/ml final concentration) and further incubated overnight at 37° C. with 5% CO2. After 24 h the following assays were performed. All experiments were repeated at least 3 times and were assayed in duplicate.
(§9) MTS assay (CellTiter 96 aqueous) was performed according to the manufacturer's (Promega) directions (for all cell types). Cell viability (mitochondrial activity) is determined via enzymatic conversion of the formazan substrate.

[2] = tested on: NRK-52E, normal rat kidney cells; conditions: 24 h
[3] = tested on: L8, normal rat skeletal muscle cells; conditions: 24 h
[4] = tested on: FDC-P1, normal mouse myelogeous stem cells; conditions: 24 h
Description: as §7, §8, §9

[5] = Homo sapiens, DU-145, 48 h, DU145, 48 hours exposure, SRB
[6] = Homo sapiens, HT-29, 48 h, HT29, 48 hours exposure, SRB
[7] = Homo sapiens, HT-29, 48 h, read-out: LC50, HT29, 48 hours exposure, SRB
[8] = Homo sapiens, SK-MEL-28, 48 h, MEL-28, 48 hours exposure, SRB
[9] = read-out: LC50, A549, 48 hours exposure, SRB

COc1c(C)cc2c(c1O)[C@@H]1C3[C@@H]4SC[C@]5(NCCc6c5[nH]c5ccccc65)C(=O)COC[C@@H](c5c6c(c(C)c(OC(=O)C(F)(F)C(F)(F)C(F)(F)F)c54)OCO6)N3[C@@H](O)[C@H](C2)N1C (some centres unmarked) [Compound 62]
CC50 (A498; A498, 48 h, read-out: LC50): 11 nM | GI50 (A498; A498, 48 hours exposure, SRB): 3.3 nM | IC (TGI) (A498; A498, 48 hours exposure, SRB): 4.4 nM | GI50 (A549; Homo sapiens, A549, 48 h, A549, 48 hours exposure, SRB): 8.8 nM | IC (TGI) (A549; Homo sapiens, A549, 48 h, A549, 48 hours exposure, SRB, read-out: TGI): 33 nM | CC50 (A549; Homo sapiens, A549, 48 h, read-out: LC50, A549, 48 hours exposure, SRB): 77 nM | GI50 (DU145; [5]): 2.2 nM | IC (TGI) (DU145; [5]): 4.4 nM | CC50 (DU145; Homo sapiens, DU-145, 48 h): 9.9 nM | GI50 (HT29; [6]): 11 nM | IC (TGI) (HT29; [6]): 66 nM | CC50 (HT29; [7]): 99 nM | CC50 (MB231; 48 h, read-out: LC50): 33 nM | GI50 (MB231; MB231, 48 hours exposure, SRB): 1.1 nM | IC (TGI) (MB231; MB231, 48 hours exposure, SRB, read-out: TGI): 5.5 nM | CC50 (MCF; 48 h, read-out: LC50): 110 nM | GI50 (MCF; MCF, 48 hours exposure, SRB): 2.2 nM | IC (TGI) (MCF; MCF, 48 hours exposure, SRB, read-out: TGI): 9.9 nM | GI50 (MEL-28; [8]): 3.3 nM | IC (TGI) (MEL-28; [8]): 1.1 nM | CC50 (MEL-28; Homo sapiens, SK-MEL-28, 48 h, read-out: LC50): 33 nM | CC50 (SW-620; SW-620, 48 h, read-out: LC50): 110 nM | IC (TGI) (SW-620; SW-620, 48 hours exposure, SRB): 55 nM | GI50 (SW-620; SW-620, 48 hours exposure, SRB, read-out: GI50): 22 nM

COc1c(C)cc2c(c1O)[C@@H]1C3[C@@H]4SC[C@]5(C(=O)COC[C@@H](c6c7c(c(C)c(OC(C)=O)c64)OCO7)N3[C@@H](O)[C@H](C2)N1C)c1[nH]c2ccccc2c1CCN5C (some centres unmarked) [Compound 39]
TGI (A549; A549, 48 hours exposure, SRB): 8.74E−08 Molar | GI50 (A549; A549, 48 hours exposure, SRB): 46.7 nM | CC50 (A549; [9]): 2320 nM | GI50 (DU145; DU145, 48 hours exposure, SRB): 55.9 nM | TGI (DU145; DU145, 48 hours exposure, SRB): 2.03E−06 Molar | CC50 (DU145; DU145, 48 hours exposure, SRB): 13000 nM | GI50 (HT29; HT29, 48 hours exposure, SRB): 48.5 nM | TGI (HT29; HT29, 48 hours exposure, SRB): 1.73E−05 Molar | CC50 (HT29; [7]): 13000 nM | GI50 (IGROV-ET): 82.5 nM | TGI (IGROV-ET): 4.04E−06 Molar | CC50 (IGROV-ET): 13000 nM | GI50 (IGROV): 43 nM | TGI (IGROV): 8.15E−08 Molar | CC50 (IGROV): 2320 nM | CC50 (K562; Homo sapiens, K562, 48 h, read-out: LC50, K562, 48 hours exposure, SRB): 79.2 nM | GI50 (K562; K562, 48 hours exposure, SRB): 25.1 nM | TGI (K562; K562, 48 hours exposure, SRB): 4.46E−08 Molar | GI50 (LNCAP): 20.5 nM | TGI (LNCAP): 4.41E−08 Molar | CC50 (LNCAP): 94.7 nM | GI50 (LOVO-DOX): 234 nM | TGI (LOVO-DOX): 9.94E−07 Molar | CC50 (LOVO-DOX): 13000 nM | GI50 (LOVO): 32.1 nM | TGI (LOVO): 6.22E−08 Molar | CC50 (LOVO): 120 nM | GI50 (MEL-28; [8]): 34.7 nM | IC (TGI) (MEL-28; [8]): 69.1 nM | CC50 (MEL-28; Homo sapiens, SK-MEL-28, 48 h, read-out: LC50, MEL-28, 48 hours exposure, SRB): 181 nM | GI50 (PANC-1): 60.1 nM | TGI (PANC-1): 9.22E−07 Molar | CC50 (PANC-1): 13000 nM | GI50 (SK-BR3): 49.9 nM | TGI (SK-BR3): 1.10E−07 Molar | CC50 (SK-BR3): 944 nM | GI50 (H-MEC-1): 58.1 nM | TGI (H-MEC-1): 1.46E−06 Molar | CC50 (H-MEC-1): 13000 nM | GI50 (SK-OV3): 62.4 nM | TGI (SK-OV3): 3.19E−07 Molar | CC50 (SK-OV3): 13000 nM | Liver [1]: 1.14E−06 | Kidney [2]: 9.88E−05 | Skeletal [3]: 4.58E−07 | Myelo [4]: 4.10E−07

COc1c(C)cc2c(c1O)[C@@H]1C3[C@@H]4SC[C@]5(C(=O)COC[C@@H](c6c7c(c(C)c(OC(C)=O)c64)OCO7)N3[C@@H](O)[C@H](C2)N1C)c1[nH]c2ccccc2c1CCN5C (some centres unmarked) [Compound 40]
TGI (A549; A549, 48 hours exposure, SRB): 4.11E−09 Molar | GI50 (A549; A549, 48 hours exposure, SRB): 2.41 nM | CC50 (A549; [9]): 7.02 nM | GI50 (DU145; DU145, 48 hours exposure, SRB): 2.35 nM | TGI (DU145; DU145, 48 hours exposure, SRB): 6.41E−09 Molar | CC50 (DU145; DU145, 48 hours exposure, SRB): 2450 nM | GI50 (HT29; HT29, 48 hours exposure, SRB): 3.26 nM | TGI (HT29; HT29, 48 hours exposure, SRB): 1.06E−08 Molar | CC50 (HT29; read-out: LC50, HT29, 48 hours exposure, SRB): 13000 nM | GI50 (IGROV-ET): 2.42 nM | TGI (IGROV-ET): 8.66E−09 Molar | CC50 (IGROV-ET): 4800 nM | GI50 (IGROV): 1.96 nM | TGI (IGROV): 4.17E−09 Molar | CC50 (IGROV): 8.86 nM | GI50 (K562; K562, 48 hours exposure, SRB): 0.843 nM | TGI (K562; K562, 48 hours exposure, SRB): 6.87E−09 Molar | CC50 (K562; read-out: LC50, K562, 48 hours exposure, SRB): 80 nM | GI50 (LNCAP): 1.02 nM | TGI (LNCAP): 2.48E−09 Molar | CC50 (LNCAP): 5.88 nM | GI50 (LOVO-DOX): 30.4 nM | TGI (LOVO-DOX): 9.12E−08 Molar | CC50 (LOVO-DOX): 551 nM | GI50 (LOVO): 2.51 nM | TGI (LOVO): 5.98E−09 Molar | CC50 (LOVO): 23.8 nM | GI50 (MEL-28; MEL-28, 48 hours exposure, SRB): 19.6 nM | TGI (MEL-28; MEL-28, 48 hours exposure, SRB): 4.70E−08 Molar | CC50 (MEL-28; read-out: LC50, MEL-28, 48 hours exposure, SRB): 112 nM | GI50 (PANC-1): 2.82 nM | TGI (PANC-1): 7.17E−09 Molar | CC50 (PANC-1): 128 nM | GI50 (SK-BR3): 2.56 nM | TGI (SK-BR3): 6.50E−09 Molar | CC50 (SK-BR3): 28 nM | GI50 (H-MEC-1): 2.45 nM | TGI (H-MEC-1): 5.31E−09 Molar | CC50 (H-MEC-1): 11.5 nM | GI50 (SK-OV3): 2.9 nM | TGI (SK-OV3): 6.28E−09 Molar | CC50 (SK-OV3): 13 nM | Liver [1]: 3.86E−08 | Kidney [2]: 2.95E−08 | Skeletal [3]: 2.11E−07 | Myelo [4]: 4.08E−08
